Tests used:
[1] = tested on: naive CD4+ T cells cultured with dendritic cells; experiment: T cell proliferation induced by activated dendritic cells ([3H]-thymidine uptake); format: cell-based, human
Method: (§1) For experiments, the leukocyte layer (buffy coats) of peripheral blood from healthy volunteers (provided by Kyoto Red Cross Blood Center, Japan) was used. After the peripheral blood monocyte fraction was separated by density gradient centrifugation using Ficoll-Paque, the fraction was applied to a magnetic bead column using MACS CD14 or cultured in cell culture flasks at 37° C. for 1 hour to select the adhered cells, thereby separating monocytes. Immature dendritic cells were obtained by culturing the monocytes (2×10^5 cells/ml) for 7 days at 37° C. in the presence of 10% fetal bovine serum, 50 ng/mL human GM-CSF and 20 ng/mL human IL-4.
Naive T cells (naive CD4^+ T cells) were isolated from the monocyte fraction of umbilical cord blood using magnetic beads for MACS CD4^+ T cell isolation. Dendritic cells were activated by being cultured for 24 hours with lipopolysaccharide (LPS, 1 μg/mL) in the presence or absence of ANP (10^−7 M). The cells were washed and irradiated (30 Gy) to eliminate their proliferation ability, followed by culturing together with the naive T cells (1×10^5 cells/well) for 6 days. The T cells were evaluated for their proliferation ability by 8 hour uptake of [methyl-^3H]-thymidine (0.5 μCi/well).

dendritic cells = experiment: Cytokine production from dendritic cells (ELISA); format: cell-based, human; conditions: for IL-10 production from dendritic cells / IL-12 production from dendritic cells / TNFα production from dendritic cells: LPS (1 μg/mL) stimulated, 24 hours, ANP 10^-8 to 10^-6 M, CNP 10^-6 M
Method: as §1
Dendritic cells were incubated for 24 hours with LPS (1 μg/mL) in the presence or absence of ANP (10^−8 M to 10^−6 M) or CNP (10^−6 M), and the levels of IL-12, IL-10 and TNFα in each culture supernatant were measured by the ELISA method.

immature dendritic cells = experiment: cGMP producing activity in immature dendritic cells; format: cell-based, human; conditions: 10^-12 to 10^-6 M, 15 minutes
Method: as §1
(§2) After the cells (1×10^5 cells/sample) were incubated in 500 μL of 10 mM HEPES, 0.5 mM 3-isobutyl-1-methylxanthine and 1 μM phospholamidon at 37° C. for 10 minutes, ANP or CNP was added to a final concentration of 10^−12 to 10^−6 M and incubation was continued for an additional 15 minutes. After the cells were washed and lysed, the intracellular cGMP concentration was measured by the ELISA method.

[2] = tested on: naive T cells co-cultured with dendritic cells; experiment: Intracellular cytokine expression in naive T cells (dendritic cell-driven Th1/Th2 polarization, flow cytometry); format: cell-based, human; conditions: dendritic cells pretreated with LPS (1 μg/mL) + ANP (10^-7 M) versus LPS alone; Sample #1 and #2
Method: as §1
Dendritic cells were activated by being pre-incubated for 24 hours with LPS (1 μg/mL) in the presence or absence of ANP (10^−7 M) and then irradiated (30 Gy) to eliminate their proliferation ability. These dendritic cells (1×10^5 cells/well) and naive T cells separated from cord blood (1×10^6 cells/well) were co-cultured for 6 days. After the T cells were grown in the presence of IL-2 (50 U/mL) for an additional 8 days, the T cells were collected and stimulated for 4 hours with 50 ng/mL phorbol ester (PMA) and 500 ng/mL ionomycin. Two hours before completion of the incubation, Brefeldin A (10 μg/mL) was added. […] IFN-γ positive cells were determined as Th1-type cells, while IL-4 positive cells were determined as Th2-type cells.

human monocytes = experiment: cGMP producing activity in monocytes; format: cell-based; conditions: 10^-12 to 10^-6 M, 15 minutes
Method: as §1, §2

## CC[C@H](C)[C@@H]1NC(=O)[C@H](CCCNC(=N)N)NC(=O)[C@H](CC(=O)O)NC(=O)[C@H](CCSC)NC(=O)[C@H](CCCNC(=N)N)NC(=O)CNC(=O)CNC(=O)[C@H](Cc2ccccc2)NC(=O)[C@@H](NC(=O)[C@H](CO)NC(=O)[C@H](CO)NC(=O)[C@H](CCCNC(=N)N)NC(=O)[C@H](CCCNC(=N)N)NC(=O)[C@H](CC(C)C)NC(=O)[C@@H](N)CO)CSSC[C@@H](C(=O)N[C@@H](CC(N)=O)C(=O)N[C@@H](CO)C(=O)N[C@@H](Cc2ccccc2)C(=O)N[C@@H](CCCNC(=N)N)C(=O)N[C@@H](Cc2ccc(O)cc2)C(=O)O)NC(=O)CNC(=O)[C@H](CC(C)C)NC(=O)CNC(=O)[C@H](CO)NC(=O)[C@H](CCC(N)=O)NC(=O)[C@H](C)NC(=O)CNC1=O [ANP, atrial natriuretic peptide]
[1]; ANP (10^-7 M) added simultaneously with LPS (1 μg/mL)
  T cell proliferation induced by LPS-treated dendritic cells: almost completely inhibited
[1]; dendritic cells treated with ANP (10^-7 M) alone, without LPS
  proliferation of naive T cells: no effect on proliferation of naive T cells
Dendritic cells
  IL-10 production from dendritic cells: enhance IL-10 production
  IL-12 production from dendritic cells: decrease both IL-12 and TNFα levels in a concentration-dependent manner
  TNFα production from dendritic cells: decrease both IL-12 and TNFα levels in a concentration-dependent manner
Dendritic cells; LPS-unstimulated dendritic cells, ANP alone
  IL-12, TNF-α and IL-10 production from dendritic cells: no effect on these cytokine productions
Immature dendritic cells
  intracellular cGMP levels: increase intracellular cGMP levels in dendritic cells in a concentration-dependent manner from a concentration as low as 10^−12 M
[2]
  IFN-γ-producing cells (Th1-type): decrease in IFN-γ-producing cells
  IL-4-producing cells (Th2-type): increase in IL-4-producing cells
Human monocytes
  intracellular cGMP levels: little increase in cGMP levels at all concentrations

## C-type natriuretic peptide [CNP, reference compound]
Dendritic cells
  IL-10 production from dendritic cells: no effect on cytokine expression
  IL-12 production from dendritic cells: no effect on cytokine expression
  TNFα production from dendritic cells: no effect on cytokine expression
Immature dendritic cells
  intracellular cGMP levels: no effect on intracellular cGMP levels
Human monocytes
  intracellular cGMP levels: no effect on intracellular cGMP levels
